{
  "source": "patent US20250288572A1",
  "about": "“COMPOSITIONS AND METHODS FOR TREATING PULMONARY VASCULAR DISEASE” (UNIVERSITY OF PITTSBURGH-OF THE COMMONWEALTH SYSTEM OF …, priority 2022, published 2025)",
  "key": {"PAECs": {"tested_on": "PAECs", "assay": "Cellular apoptosis, caspase-3/7 activity (Caspase-Glo 3/7) in PAECs", "assay_type": "cell-based, human", "protocol": "The hypoxia chamber (modular incubator chamber) was obtained from Billups-Rothenberg Inc. (Del Mar, Cali) and placed in regulated CO2 incubator at 37° C.\n(§1) Cellular apoptosis: Caspase-3/7 activity was quantified using the Caspase-Glo 3/7 Assay (Promega), according to manufacturer's instructions. Caspase-3/7 activity was normalized to total protein content determined by BCA method (Thermo Fisher Scientific)."}, "[1]": {"tested_on": "monocrotaline-exposed pulmonary arterial hypertension rats", "assay": "Monocrotaline (MCT) pulmonary arterial hypertension rat model, dosing Days 12-26", "protocol": "Measurement of GST activity: The GST activity from lung tissue and PAECs was assayed using GST assay kit (Cayman, MI, USA) per the manufacturer's instructions."}, "hypoxic IL-6 Tg mice": {"tested_on": "hypoxic IL-6 Tg mice", "assay": "Chronically hypoxic IL-6 transgenic PAH mouse model", "assay_type": "in vivo, IL-6 transgenic mice (C57B/6 background)", "protocol": "Pulmonary-specific IL-6 transgenic mice (C57B/6 background) were described previously (Steiner M K et al. Circ Res. 2009, 104, 236-244, 228p following 244). These mice were bred in house, and 12 week old male transgenic mice vs. control littermates were compared. Mice were injected i.p. every 3 days with vehicle control (2.5% DMSO) vs. BRD2889 (5 mg/kg vs. […] Circ Res. 2009, 104, 236-244, 228p following 244).\nRodent echocardiography: Echocardiography was performed using a 15-45M Hz transthoracic transducer and a Visual Sonics Vevo 3100 system (Fujifilm). Inhaled isoflurane anesthesia was used at 2% in 100% 02 during positioning and hair removal and then decreased to isoflurane 0.8% during imaging."}, "[2]": {"tested_on": "glutathione S-transferase (GST)", "assay": "Measurement of GST activity in PAECs", "assay_type": "cell-based, human", "protocol": "(§2) BRD2889 (1 uM) vs. vehicle control were added, as indicated, and placed into a hypoxia chamber for 24 h. The hypoxia chamber (modular incubator chamber) was obtained from Billups-Rothenberg Inc. (Del Mar, Cali) and placed in regulated CO2 incubator at 37° C."}, "ISCU [3]": {"tested_on": "ISCU", "assay": "Immunoprecipitation/immunoblot of glutathionylated ISCU in PAECs", "assay_type": "cell-based, human", "parameters": "dose or concentration left out as unconfirmed", "conditions": "hypoxic PAECs, BRD2889 (24 h)", "protocol": "Immunoblot and densitometry: Cells were lysed in RIPA buffer (Sigma) along with 1× protease inhibitor cocktail (Sigma). Protein lysate was resolved by gradient 4%-15% SDS-PAGE gels and transferred onto a 0.2 μm PVDF membrane (Bio-Rad). Membranes were blocked in 5% non-fat milk in 1×PBST buffer for one hour at room temperature. Later, they were incubated in the presence of the primary antibody overnight at 4° C., and then appropriate HRP-conjugated secondary antibodies (Life Technologies). The following antibodies were used: human LGALS8 (AF1305, RnD Systems), mouse/rat Lgals8 ([…], Abcam), pSTAT1 (ab29045, Abcam) and STAT1 (ab47425, Abcam), GSTP1 (ab153949, Abcam), ISCU (14812-1-AP, Pointech), Glutathione (ab19534, Abcam), HIF2A (NB100-122, Novous), α-Tubulin (CP06, Millipore sigma), and ACTB (sc-47778, Santa Cruz). […] The images were later quantified using AlphaEaseFC software (Alpha Innotech).\nImmunoprecipitation: PAECs were transfected with the indicated combinations of siRNAs by Lipofectamine 2000 (Thermo Fisher Scientific) according to the manufacturer's instructions and/or treated with BRD2889 ([…], 24 h). […] After extensive washing, the immunoprecipitated proteins were analyzed by immunoblotting with the indicated antibodies."}, "ISCU [4]": {"tested_on": "ISCU", "assay": "Immunoblot and densitometry of ISCU and GSTP1 in PASMCs", "assay_type": "cell-based, human", "conditions": "IL-6/sIL-6R + hypoxia, BRD2889 1 uM", "protocol": "as §2\nImmunoblot and densitometry: Cells were lysed in RIPA buffer (Sigma) along with 1× protease inhibitor cocktail (Sigma). Protein lysate was resolved by gradient 4%-15% SDS-PAGE gels and transferred onto a 0.2 μm PVDF membrane (Bio-Rad). Membranes were blocked in 5% non-fat milk in 1×PBST buffer for one hour at room temperature. Later, they were incubated in the presence of the primary antibody overnight at 4° C., and then appropriate HRP-conjugated secondary antibodies (Life Technologies). The following antibodies were used: human LGALS8 (AF1305, RnD Systems), mouse/rat Lgals8 ([…], Abcam), pSTAT1 (ab29045, Abcam) and STAT1 (ab47425, Abcam), GSTP1 (ab153949, Abcam), ISCU (14812-1-AP, Pointech), Glutathione (ab19534, Abcam), HIF2A (NB100-122, Novous), α-Tubulin (CP06, Millipore sigma), and ACTB (sc-47778, Santa Cruz). The immunoreactive bands were visualized with the Chemidoc XRS+ system (Bio-Rad) using SuperSignal West Femto chemiluminescent substrates (Thermo Fisher Scientific). The images were later quantified using AlphaEaseFC software (Alpha Innotech)."}, "PASMCs": {"tested_on": "PASMCs", "assay": "Apoptosis (caspase 3/7) in PASMCs", "assay_type": "cell-based, human", "conditions": "IL-6/sIL-6R + hypoxia", "protocol": "as §2, §1"}, "[5]": {"conditions": "I-BET762 30 mg/kg daily i.p. or BRD2889 5 mg/kg i.p. every 5 days, Days 12-26"}, "[6]": {"conditions": "BRD2889 10 mg/kg vs vehicle, 10 days, 10 mg/kg"}, "[7]": {"conditions": "BRD2889 5 and 10 mg/kg i.p. every three days"}},
  "note": "“Also recorded” adds a separate entry of the source.",
  "data": [
    {"smiles": "COc1ccc(C#CC2CCCN(C(=O)/C=C/c3cc(OC)c(OC)c(OC)c3)C2=O)cc1", "note": "(centres unmarked) [BRD2889, (E)-3-((4-methoxyphenyl)ethynyl)-1-(3-(3,4,5-trimethoxyphenyl)acryloyl)piperidin-2-one]", "values": [
      {"measurement": "apoptosis (caspase 3/7 activity)", "setting": "PAECs; PAECs, IL-6/sIL-6R + hypoxia", "value": "reduced apoptosis; also recorded: reversing"},
      {"measurement": "apoptosis (caspase 3/7 activity)", "setting": "PAECs; hypoxic PAECs with siRNA knockdown of ISCU", "value": "did not reverse the hypoxic increase"},
      {"measurement": "apoptosis (caspase 3/7 activity)", "setting": "PAECs; hypoxic PAECs, BRD2889", "value": "reversed the increase in apoptosis; also recorded: reversed hypoxic alterations"},
      {"measurement": "endothelial ISCU (immunofluorescence)", "setting": "[1]; BRD2889 5 mg/kg i.p. every 5 days", "value": "increased"},
      {"measurement": "lung GST activity", "setting": "[1]; BRD2889 5 mg/kg i.p. every 5 days, 5 mg/kg", "value": "reduced; also recorded: decreased"},
      {"measurement": "transcript levels of injury markers of liver (Got, Gpt1), kidney (Cst3, Lcn2), intestines (Ldha), tissue toxicity", "setting": "[1]; BRD2889 vs VC, RT-qPCR", "value": "no indication of overt tissue toxicities"},
      {"measurement": "Fulton index (RV/LV+S)", "setting": "[1]; [5]", "value": "reducing; also recorded: reduced"},
      {"measurement": "arteriolar muscularization (α-SMA)", "setting": "[1]; [5]", "value": "reducing; also recorded: reduced"},
      {"measurement": "cleaved caspase-3 (CC-3), endothelial apoptosis", "setting": "[1]; [5]", "value": "reducing; also recorded: decreased"},
      {"measurement": "right ventricular systolic pressure (RVSP)", "setting": "[1]; [5]", "value": "reducing; also recorded: reduced"},
      {"measurement": "aortic blood pressure (mean arterial pressure, MAP)", "setting": "[1]; vs vehicle control", "value": "without significant alterations"},
      {"measurement": "heart rate", "setting": "[1]; vs vehicle control", "value": "without significant alterations"},
      {"measurement": "heart rate", "setting": "hypoxic IL-6 Tg mice; [6]", "value": "No significant differences"},
      {"measurement": "left ventricular function (fractional shortening, ejection fraction, posterior wall thickness)", "setting": "hypoxic IL-6 Tg mice; [6]", "value": "No significant differences"},
      {"measurement": "Fulton index (RV/LV+S)", "setting": "hypoxic IL-6 Tg mice; [7]", "value": "dose-dependent reduction; also recorded: reduced"},
      {"measurement": "ISCU in arterioles / CD31+ endothelium", "setting": "hypoxic IL-6 Tg mice; [7]", "value": "rescued ISCU; also recorded: increased"},
      {"measurement": "RVSP", "setting": "hypoxic IL-6 Tg mice; [7]", "value": "dose-dependent reduction; also recorded: reduced"},
      {"measurement": "arteriolar muscularization / pulmonary arteriolar remodeling", "setting": "hypoxic IL-6 Tg mice; [7]", "value": "reduction; also recorded: reduced"},
      {"measurement": "cleaved caspase-3 (CC-3), endothelial apoptosis", "setting": "hypoxic IL-6 Tg mice; [7]", "value": "reduction; also recorded: decreased"},
      {"measurement": "lung total GST enzyme activity", "setting": "hypoxic IL-6 Tg mice; [7]", "value": "dose-dependent reduction; also recorded: decreased lung GST activity in a dose-dependent manner"},
      {"measurement": "GST activity", "setting": "[2]; PAECs, IL-6/sIL-6R + hypoxia, BRD2889 1 uM", "value": "reversed the increase in GSTP1 activity; also recorded: reversed the IL-6/R+ hypoxia-mediated increase"},
      {"measurement": "GST enzyme activity", "setting": "[2]; hypoxic PAECs", "value": "reduced the hypoxic increase in GST enzyme activity; also recorded: reversed hypoxic alterations"},
      {"measurement": "ISCU glutathionylation (α-GSH immunoblot after α-ISCU pulldown)", "setting": "ISCU [3]", "value": "converse reduction of glutathionylation; also recorded: reversed these findings; also recorded: reversal of the hypoxic induction of ISCU glutathionylation"},
      {"measurement": "GSTP1 protein expression", "setting": "ISCU [4]", "value": "did not affect"},
      {"measurement": "ISCU protein", "setting": "ISCU [4]", "value": "failed to rescue ISCU"},
      {"measurement": "apoptosis", "setting": "PASMCs", "value": "only subtly changed"}
    ]}
  ]
}
